Assay [1] can be described thus: cytotoxicity toward DRD oncogenic fibroblasts, dose response, cell-based, non-viral oncogenic, luminescence (AID 1934). The class given is functional. Particulars: Homo sapiens.
A further assay deals with INS1. The experiment in a line: beta cell apoptosis inhibitors, cytokine rescue, dose response, luminescence, retest (AID 449756).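 Further: cell death triggered by IL-1 beta plus TNF-alpha plus IFN-gamma mixture; protective hits raise ATP signal compared with cytokine alone wells.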 The note with it: Rattus norvegicus. It counts as functional, cell-based.
Assay [2] can be described thus: Luminescence Cell-Based Dose Response HTS to Identify Inhibitors of 5'UTR Stem-Loop Driven Prion Protein mRNA Translation in H4 Neuroglioblastoma Cells. [Related pubchem assays: 1827 (Project Summary), 1813 (Primary HTS)]. The class given is functional.
Assay [3] has as its system BJ. The experiment in a line: cytotoxicity toward BJ-TERT fibroblasts, dose response, cell-based, RAS-independent, luminescence (AID 1933). The class given is functional. Particulars: Homo sapiens.
For assay [4], the system named is BJ. Kind of assay: cells. The class given is functional, cell-based. The note with it: Homo sapiens.
Assay [5] can be described thus: inhibitors of firefly luciferase expression or activity, dose response, H4 neuroglioma cells, luminescence (AID 1990). The class given is functional, cell-based.
The nature of assay [6]: inhibitors of SNCA 5'UTR-driven reporter translation, confirmation, H4 neuroglioma cells, luminescence (AID 1988). The class given is functional, cell-based.
For assay [7], the system named is BJ. Kind of assay: cytotoxicity toward BJ-TERT-LT-ST fibroblasts, dose response, cell-based, RAS-independent, luminescence (AID 1935).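 Further: BJ fibroblasts immortalized with TERT plus LT and ST oncogenes.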 Particulars: Homo sapiens. The class given is functional.
Assay [8] can be described thus: Luminescence Cell-Based Dose Retest to Confirm Inhibitors of Cancer Stem Cells. [Related pubchem assays (depositor defined):AID2717, AID2721]. The class given is functional. The note with it: Homo sapiens.
A short description of assay [9]: THP-1 cell cytotoxicity, dose response, cytotoxicity control for Vif-APOBEC3G degradation inhibitor project, THP-1 cells (AID 1117359). Particulars: Human immunodeficiency virus 1, THP-1. The class given is functional.
Assay [10] addresses T1, Fatty acid synthase (Homo sapiens, UniProt P49327). The experiment in a line: FAS thioesterase domain inhibitors, dose response, biochemical, endpoint fluorescence intensity, uHTS hits (AID 624327).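 Further: fluorescence from hydrolysis of an O-methyl fluorescein acyl ester substrate by the enzyme.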 The class given is functional.
Assay [11] addresses T1, Fatty acid synthase. The experiment in a line: FAS thioesterase domain inhibitors, dose response, biochemical, kinetic fluorescence intensity (AID 624326).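 Further: rate of fluorescence rise from hydrolysis of a fluorogenic O-methyl fluorescein ester substrate.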 The class given is functional.
A short description of assay [12]: cytotoxicity in HEK-293T cells, dose response, cytotoxicity control for TCR NF-kB inhibitor project, luminescence, T-cell screen hits (AID 489026).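 Further: cells exposed to compound about 14 hours before the viability readout.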 The class given is functional, cell-based.
The target in assay [13] is Beta-2 adrenergic receptor (Homo sapiens, UniProt P07550). Kind of assay: beta2AR agonists driving receptor internalization, dose response, cell-based, FAP fluorogen, flow cytometry, cherry pick 1 (AID 588763). The class given is functional. Background: In flow cytometry, cells or beads pass a laser one at a time.
A short description of assay [14]: growth suppression of beta-catenin-knockout colon cells, dose response, cell-based, HCT116, human colon tumor (AID 1045).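 Further: HCT116 colon tumor cells with beta catenin knocked out; cells exposed to compound for 60 hours.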 It counts as functional.
For assay [15], the system named is Streptococcus sp. 'group A'. Kind of assay: growth inhibition of control SK(-) GAS strain, dose response, counter-screen for streptokinase expression inhibitor project, luminescence, kanamycin, BacTiterGlo, confirmation (AID 1900). It counts as functional, organism-based. (The purpose of a counterscreen is to sort out artefacts and off-target activity.)
Assay [16] is described as follows: growth suppression of PTEN-null colon cells, dose response, cell-based, HCT116 PTEN knockout (AID 1047).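 Further: HCT116 colon tumor cells with PTEN knocked out; cells exposed to compound for 60 hours before readout; potency for loss of cell viability measured by luminescence.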 The class given is functional.
The next assay deals with Streptococcus. The experiment in a line: Group A Streptococcus viability loss, dose response, counter-screen for streptokinase expression inhibitor project, luminescence, BacTiterGlo (AID 1915).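 Further: potency for reduction of bacterial viability or growth.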 It counts as functional, organism-based.
A short description of assay [17]: HEp-2 cell cytotoxicity, dose response, cytotoxicity control for RSV inhibitor project, HTS (AID 2410). It counts as functional. Particulars: human respiratory syncytial virus.
The target in a further assay is T2, Streptokinase A (Streptococcus pyogenes serotype M1, UniProt P10520).
T2 sequence (P10520 whole entry): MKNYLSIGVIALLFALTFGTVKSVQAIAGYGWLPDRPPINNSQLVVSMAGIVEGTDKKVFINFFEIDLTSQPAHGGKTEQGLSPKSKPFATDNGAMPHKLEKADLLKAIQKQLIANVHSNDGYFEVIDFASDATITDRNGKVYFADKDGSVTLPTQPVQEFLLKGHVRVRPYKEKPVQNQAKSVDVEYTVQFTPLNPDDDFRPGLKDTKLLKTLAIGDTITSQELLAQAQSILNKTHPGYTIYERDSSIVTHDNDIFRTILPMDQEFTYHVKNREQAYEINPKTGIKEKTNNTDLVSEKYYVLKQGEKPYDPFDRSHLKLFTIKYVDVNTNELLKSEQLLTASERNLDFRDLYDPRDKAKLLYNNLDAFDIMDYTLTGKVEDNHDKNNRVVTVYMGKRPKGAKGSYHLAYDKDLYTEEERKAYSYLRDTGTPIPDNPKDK
Kind of assay: S. pyogenes streptokinase expression inhibitors, potency, dose response, plasminogen activation absorbance, OD405 (AID 1914).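 Further: secreted streptokinase activity via plasminogen activation per viability signal from cell pellet.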 The class given is functional, Streptococcus pyogenes M1 GAS.

Another assay deals with Vero. The experiment in a line: cells. It counts as functional. Particulars: Chlorocebus sabaeus.
A short description of assay [18]: cytotoxicity toward NIH3T3 fibroblasts, dose response, counter-screen, cell-based, ATP luminescence, mouse fibroblasts (AID 2010).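 Further: cells exposed to compound for about 90 hours before reading.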 The class given is functional.
Assay [19] addresses T3, Carboxy-terminal domain RNA polymerase II polypeptide A small phosphatase 1 (Homo sapiens, UniProt Q9GZU7).
T3 sequence (Q9GZU7 whole entry): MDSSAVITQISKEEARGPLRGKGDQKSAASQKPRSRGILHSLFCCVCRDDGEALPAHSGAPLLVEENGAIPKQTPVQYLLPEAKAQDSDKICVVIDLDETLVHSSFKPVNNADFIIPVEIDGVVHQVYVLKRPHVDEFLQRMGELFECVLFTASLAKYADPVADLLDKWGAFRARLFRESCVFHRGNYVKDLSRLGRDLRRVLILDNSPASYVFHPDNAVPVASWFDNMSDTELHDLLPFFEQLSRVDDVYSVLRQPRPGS
Kind of assay: inhibitors of CTDSP1, concentration-response testing, biochemical assay, absorbance-based, actives from ultra-high-throughput screening (AID 540297). The class given is functional.

Assay [20] in a line: inhibitors of intracellular T. cruzi replication, confirmation, NIH3T3 host cells, beta-gal luminescence (AID 2044).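 Further: intracellular parasites grown in NIH/3T3 mouse fibroblasts as host cells; luminescent beta-galactosidase reporter signal from transgenic T. cruzi replicating inside host cells; inhibitors lower the luminescence signal.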 The class given is functional, cell-based.
The next assay deals with T4, Protein skinhead-1 (Caenorhabditis elegans, UniProt P34707).
T4 sequence (P34707 whole entry): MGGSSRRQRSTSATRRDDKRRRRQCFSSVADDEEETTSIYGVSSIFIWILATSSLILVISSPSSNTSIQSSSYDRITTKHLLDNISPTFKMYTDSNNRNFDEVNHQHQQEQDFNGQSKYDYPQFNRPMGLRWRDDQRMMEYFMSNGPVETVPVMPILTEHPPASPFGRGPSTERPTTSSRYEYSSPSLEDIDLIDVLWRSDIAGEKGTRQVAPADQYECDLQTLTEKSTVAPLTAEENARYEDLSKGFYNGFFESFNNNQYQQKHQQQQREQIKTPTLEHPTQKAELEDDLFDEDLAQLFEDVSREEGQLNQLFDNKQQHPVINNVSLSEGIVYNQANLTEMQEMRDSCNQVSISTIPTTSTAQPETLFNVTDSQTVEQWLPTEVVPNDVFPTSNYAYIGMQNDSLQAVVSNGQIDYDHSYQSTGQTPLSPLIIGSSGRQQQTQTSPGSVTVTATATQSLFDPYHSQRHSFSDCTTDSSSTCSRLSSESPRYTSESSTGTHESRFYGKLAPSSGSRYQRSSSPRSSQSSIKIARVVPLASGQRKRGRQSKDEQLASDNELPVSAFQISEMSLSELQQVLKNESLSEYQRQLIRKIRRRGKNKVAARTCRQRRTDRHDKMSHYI
It counts as functional.

Activity calls are given as the source filed them. Where only a bound is given, the exact number is not on record here.

T1 sequence (P49327 whole entry, the tested form may be a part): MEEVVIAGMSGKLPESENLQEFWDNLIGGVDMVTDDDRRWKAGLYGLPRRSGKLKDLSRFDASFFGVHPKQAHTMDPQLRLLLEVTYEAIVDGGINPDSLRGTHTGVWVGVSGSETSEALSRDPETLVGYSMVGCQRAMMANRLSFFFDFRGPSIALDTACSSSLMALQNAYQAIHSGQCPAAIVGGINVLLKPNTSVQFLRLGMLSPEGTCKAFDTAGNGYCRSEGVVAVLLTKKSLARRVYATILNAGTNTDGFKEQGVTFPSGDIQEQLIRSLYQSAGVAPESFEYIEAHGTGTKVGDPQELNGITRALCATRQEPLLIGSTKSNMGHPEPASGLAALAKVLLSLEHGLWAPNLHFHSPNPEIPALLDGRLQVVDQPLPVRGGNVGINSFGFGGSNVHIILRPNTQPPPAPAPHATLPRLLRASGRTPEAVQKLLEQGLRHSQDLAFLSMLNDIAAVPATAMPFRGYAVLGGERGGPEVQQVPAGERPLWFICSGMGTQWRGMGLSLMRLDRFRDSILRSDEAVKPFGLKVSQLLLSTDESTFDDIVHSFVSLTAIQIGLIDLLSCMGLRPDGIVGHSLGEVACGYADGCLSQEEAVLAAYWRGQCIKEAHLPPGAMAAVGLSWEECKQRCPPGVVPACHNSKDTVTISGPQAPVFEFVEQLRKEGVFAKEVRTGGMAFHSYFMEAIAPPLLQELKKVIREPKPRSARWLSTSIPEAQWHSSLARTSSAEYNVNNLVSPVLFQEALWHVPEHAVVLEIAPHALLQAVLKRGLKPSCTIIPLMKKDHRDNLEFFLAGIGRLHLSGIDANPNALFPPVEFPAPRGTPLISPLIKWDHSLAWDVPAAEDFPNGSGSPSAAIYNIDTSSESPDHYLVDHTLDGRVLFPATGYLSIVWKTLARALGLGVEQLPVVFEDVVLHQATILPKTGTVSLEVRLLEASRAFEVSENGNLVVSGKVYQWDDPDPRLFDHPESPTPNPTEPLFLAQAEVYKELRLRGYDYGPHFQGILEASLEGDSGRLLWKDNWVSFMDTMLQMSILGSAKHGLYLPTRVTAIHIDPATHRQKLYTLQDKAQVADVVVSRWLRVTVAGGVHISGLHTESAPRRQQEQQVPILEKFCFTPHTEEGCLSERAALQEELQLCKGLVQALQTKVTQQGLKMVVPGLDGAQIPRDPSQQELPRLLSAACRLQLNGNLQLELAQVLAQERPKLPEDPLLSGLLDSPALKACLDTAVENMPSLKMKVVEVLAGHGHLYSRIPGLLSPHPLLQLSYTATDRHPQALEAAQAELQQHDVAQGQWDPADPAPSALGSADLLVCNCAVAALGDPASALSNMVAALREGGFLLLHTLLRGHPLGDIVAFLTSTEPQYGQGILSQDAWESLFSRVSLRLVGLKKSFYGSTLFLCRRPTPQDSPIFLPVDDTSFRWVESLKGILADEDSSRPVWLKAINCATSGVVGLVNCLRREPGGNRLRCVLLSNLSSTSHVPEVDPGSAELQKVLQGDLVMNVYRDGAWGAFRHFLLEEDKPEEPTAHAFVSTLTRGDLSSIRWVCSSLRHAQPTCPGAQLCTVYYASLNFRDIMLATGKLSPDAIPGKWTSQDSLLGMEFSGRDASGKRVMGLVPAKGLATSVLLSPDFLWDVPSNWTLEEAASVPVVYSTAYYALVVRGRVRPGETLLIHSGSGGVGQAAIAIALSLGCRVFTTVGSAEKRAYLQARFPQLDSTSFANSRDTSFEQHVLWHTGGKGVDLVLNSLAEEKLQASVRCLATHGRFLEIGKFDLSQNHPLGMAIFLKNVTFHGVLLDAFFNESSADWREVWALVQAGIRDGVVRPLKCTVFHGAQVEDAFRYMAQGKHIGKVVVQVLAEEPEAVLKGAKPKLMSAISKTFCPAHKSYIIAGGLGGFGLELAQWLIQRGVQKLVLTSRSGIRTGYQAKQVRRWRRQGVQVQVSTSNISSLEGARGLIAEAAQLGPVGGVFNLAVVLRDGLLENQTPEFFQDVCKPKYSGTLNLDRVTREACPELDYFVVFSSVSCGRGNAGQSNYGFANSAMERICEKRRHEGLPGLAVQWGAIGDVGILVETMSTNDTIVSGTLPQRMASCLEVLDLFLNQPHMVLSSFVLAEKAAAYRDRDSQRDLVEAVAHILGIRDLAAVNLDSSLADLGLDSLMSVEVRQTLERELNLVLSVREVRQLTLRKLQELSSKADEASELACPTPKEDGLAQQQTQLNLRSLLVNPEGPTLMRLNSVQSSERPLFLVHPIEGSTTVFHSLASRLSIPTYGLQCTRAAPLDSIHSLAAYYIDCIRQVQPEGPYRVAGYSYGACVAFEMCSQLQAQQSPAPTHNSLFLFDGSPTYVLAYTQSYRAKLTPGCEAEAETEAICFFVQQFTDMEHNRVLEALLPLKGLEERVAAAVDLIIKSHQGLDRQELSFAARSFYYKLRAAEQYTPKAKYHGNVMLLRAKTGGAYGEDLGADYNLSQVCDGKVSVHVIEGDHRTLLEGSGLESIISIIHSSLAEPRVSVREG
Sequence of Beta-2 adrenergic receptor (P07550 whole entry): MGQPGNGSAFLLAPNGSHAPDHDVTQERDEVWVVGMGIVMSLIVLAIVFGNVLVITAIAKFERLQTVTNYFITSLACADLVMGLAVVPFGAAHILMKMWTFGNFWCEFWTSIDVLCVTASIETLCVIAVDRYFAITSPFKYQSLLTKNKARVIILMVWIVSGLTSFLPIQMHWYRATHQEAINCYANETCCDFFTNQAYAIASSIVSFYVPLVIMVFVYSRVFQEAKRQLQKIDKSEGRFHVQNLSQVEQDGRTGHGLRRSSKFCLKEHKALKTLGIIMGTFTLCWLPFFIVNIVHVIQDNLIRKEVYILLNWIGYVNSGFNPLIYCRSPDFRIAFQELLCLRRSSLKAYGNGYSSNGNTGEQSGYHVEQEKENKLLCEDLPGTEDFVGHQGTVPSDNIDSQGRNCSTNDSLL

As a reminder, the EC50 is the concentration at which the effect is half-maximal. Broadly, the AC50 is the midpoint of the concentration-response curve, whichever way the signal moves. Consider `COc1ccc(/C=C/C(=O)c2ccc([N+](=O)[O-])o2)cc1OC`, for which the half-maximal effective concentration (EC50) in assay [1] was 2.58 µM (inconclusive); in [2], 10.5 µM (active); in the assay on BJ [3], > 150 µM (not active); with BJ [4] it was > 150 µM (inconclusive); in assay [5], 9.14 µM (active); in [6] it was > 120 µM (not active). Besides, in the assay with BJ [7], the 50% effective concentration (EC50) is 1.15 µM (inconclusive). Moreover, the half-maximal activity concentration (AC50) was 3.94 µM (active) in the assay with INS1 and 2.09 µM (active) in assay [8].
The term CC50 denotes the concentration that lowers cell viability or growth by half. Consider `COc1ccc(C2Nc3ccccc3C(=O)N2c2ccc(Cl)cc2)cc1Cn1cc([N+](=O)[O-])cn1` (stereo not drawn), for which the CC50 in assay [9] was > 40 µM (active).
For orientation: IC50 means the concentration at which inhibition is half-maximal. `COc1ccc2cc3cc(C(=O)N4CCCCCC4)oc3nc2c1`: the results for the IC50 at Fatty acid synthase [10] and on Fatty acid synthase [11] were 3.92 µM (active) and 3.37 µM (active), respectively.
As for `COc1cc([C@@H]2c3cc4c(cc3[C@@H](OC)[C@H]3COC(=O)[C@H]23)OCO4)cc(OC)c1O`, the IC50 in assay [12] is > 80 µM (inactive).
As to `COCCCNc1ncnc2c1sc1nc(-c3ccco3)c3c(c12)CC(C)(C)OC3`, the concentration giving a half-maximal response (EC50) in [13] was 0.0417 µM (active).
For the compound `CCCCOc1ccc(-c2c(C#N)c(N)nc(SCC(N)=O)c2C#N)cc1`, the EC50 in assay [14] was 21.2 µM (active); in assay [15], 6.77 µM (active); in assay [16], 15.8 µM (active); in the assay with Streptococcus it was > 150 µM (not active); on Streptokinase A, > 150 µM (not active). For the same compound, in [17], the CC50 was 19.9 µM (active). Moreover, the half-maximal inhibitory concentration (IC50) at Fatty acid synthase [10] is 1.12 µM (active); at Fatty acid synthase [11], 0.644 µM (active).
Turning to `CC(C)(C)c1ccc2c(c1)OC(C(=O)N/N=C/c1ccc([N+](=O)[O-])o1)CO2` (stereo not drawn), the CC50 with Vero was > 25 µM (active). The 50% effective concentration (EC50) in assay [15] was 5.27 µM (active); in the assay on Streptococcus, 10.3 µM (active); in [18], > 60 µM (not active); in [20] it was 0.102 µM (active); at Streptokinase A, 5.82 µM (active). The half-inhibitory concentration (IC50) in assay [19] was 5.41 µM (active).
For `Oc1cc(-c2ccccc2)nc2cc(F)ccc12`, in assay [12], the IC50 was > 80 µM (inactive).
As for `CCOC(=O)c1cc2c(=O)n3ccccc3nc2n(Cc2ccco2)/c1=N/C(=O)c1ccc(OC)cc1`, the IC50 on Fatty acid synthase [10] is 14.6 µM (active); on Fatty acid synthase [11] it was 80 µM (inactive).
Take `O=c1c2ccccc2sc2ccccc12`: on Protein skinhead-1, the IC50 is 59.3 µM (inactive).
